According to US10004815B2, “Near-infrared quenching group” (priority 2013, dated 2018):

Legend:
Assay type in all cases: physicochemical
[1] = Fluorescence spectrum / quantum efficiency of fluorescence (ICG in DMSO as standard); settings: both water and organic solvents; excitation 760 nm
Method: The absorption spectra and fluorescence spectra (excitation wavelength 760 nm) of […] PBS, methanol, DMF, and chloroform solutions of comparative compound 1 (each containing 0.1% DMSO as cosolvent) were measured.

[2] = Absorption spectrum measurement; settings: for Λabs. max: 0.1% DMSO as cosolvent; for maximum absorption wavelength: PBS (1% DMSO)
Method: The absorption spectrum of a […] PBS solution of comparative compound 2 (containing 0.1% DMSO as cosolvent) was measured.
The maximum absorption wavelength of compound 1 was 763 nm, and the maximum absorption wavelength of compound 4 was 732 nm.

[3] = Changes over time in the absorption spectrum in water (PBS); settings: PBS solution, 0.1% DMSO as cosolvent

SMILES: Cc1ccccc1C1=C2C=C/C(=[N+]3/CCc4ccccc43)C=C2[Si](C)(C)c2cc(N3CCc4ccccc43)ccc21 [comparative compound 1, 2-Me-Si-QSY21]
- fluorescence quantum yield [1]: ≤ 0.001
- absorption spectrum reached up to [2]: up to 850 nm
- Λabs. max ([2]; Chloroform): 790 nm
- Λabs. max ([2]; DMF): 790 nm
- Λabs. max ([2]; MeOH): 779 nm
- Λabs. max ([2]; PBS): 764 nm

SMILES: Cc1ccccc1C1=C2C=C/C(=[N+]3/CCc4cc(S(=O)(=O)O)ccc43)C=C2[Si](C)(C)c2cc(N3CCc4cc(S(=O)(=O)O)ccc43)ccc21 [comparative compound 2, 2-Me-SO3H—Si-QSY21]
- change in absorption wavelength due to introduction of a sulfone group ([2]; PBS solution, 0.1% DMSO): no change in absorption wavelength
- changes over time in absorption in water (stability in water) [3]: a gradual decrease in absorption was observed in water

SMILES: Cc1cccc(C)c1C1=C2C=C/C(=[N+]3/CCc4cc(S(=O)(=O)O)ccc43)C=C2[Si](C)(C)c2cc(N3CCc4cc(S(=O)(=O)O)ccc43)ccc21 [compound 1, 2,6-diMe-SO3H Indoline-Si-QSY21]
- maximum absorption wavelength [2]: 763 nm
- changes over time in absorption in water (stability in water) [3]: no decrease in absorption in water was observed

SMILES: COc1cccc(OC)c1C1=C2C=C/C(=[N+]3/CCc4cc(S(=O)(=O)O)ccc43)C=C2[Si](C)(C)c2cc(N3CCc4cc(S(=O)(=O)O)ccc43)ccc21 [compound 2, 2,6-diOMe-SO3H Indoline-Si-QSY21]
- changes over time in absorption in water (stability in water) [3]: no decrease in absorption in water was observed

SMILES: Cc1cccc(C)c1C1=C2C=C/C(=[N+]3/CCCc4cc(S(=O)(=O)O)ccc43)C=C2[Si](C)(C)c2cc(N3CCCc4cc(S(=O)(=O)O)ccc43)ccc21 [compound 4, 2,6-diMe-SO3H Tetrahydroquinoline-Si-QSY21]
- maximum absorption wavelength [2]: 732 nm
